# In patent US20160212997A1, “AGRICULTURAL CHEMICALS” (REDAG CROP PROTECTION LTD, priority 2013, published 2016):
# Read-outs that look alike come from different tables or passages of the source.
# What was measured:
# Type in all cases: in vivo
# aphids, Myzus persicae = test: Potter tower spray on aphids, knockdown and mortality; conditions: Aphids; for pest or weed control at 0.00625 % strength / pest or weed control at 0.0125 % strength / pest or weed control at 0.025 % strength / pest or weed control at 0.05 % strength / pest or weed control at 0.1 % strength: Myzus persicae, read-out: Average of % corrected affected; for pest or weed control at 0.00625 % strength: 0.00625 % w/v; for pest or weed control at 0.0125 % strength: 0.0125 % w/v; for pest or weed control at 0.025 % strength: 0.025 % w/v; for pest or weed control at 0.05 % strength: 0.05 % w/v; for pest or weed control at 0.1 % strength: 0.1 % w/v
# In short: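 Ten aphids (mixed sex and age) per Petri dish on a leaf disc were sprayed by Potter tower with compounds at five concentrations in DMSO. Knockdown and mortality were scored at 24 and 48 hours, five replicates per treatment, alongside carrier-only and untreated controls.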
# [1] = test system: red spider mites, Tetranychus urticae; test: Potter tower spray on red spider mites, knockdown and mortality; conditions: for percentage control: Spider mites
# From the text: The compounds were screened for insecticidal efficacy against aphids, Myzus persicae, Cabbage moth, Mamestra brassicae, diamond black moths, Plutella xylostella, red spider mites, Tetranychus urticae, whitefly, Trialeurodes vaporariorum, in terms of knockdown and mortality.
# Myzus persicae, Cabbage moth, Mamestra brassicae, diamond back moths, Plutella xylostella, red spider mites, Tetranychus urticae, whitefly, Trialeurodes vaporariorum, were obtained from specified laboratory cultures. Mixed sex and age aphids and mites, moth larvae and whitefly scale infested leaves were used in the experiments. Environmental conditions were closely monitored and recorded and were within the optimal range of the target species.
# The compounds were screened at a range of five concentrations, diluted in DMSO. Some of the compounds were screened against aphids, whitefly and red spider mites and other compounds were screened against cabbage moth, and diamond black moths. A carrier only and an untreated control will also be conducted. Treatments were applied directly onto the insects within Petri dishes, using a potter tower.
# Twenty mites and ten aphids, scales and moth larvae were placed within a Petri dish, lined with a suitable leaf disc on a damp cotton wool pad. Scales were already on leaves. The Petri dishes were then sprayed using a potter tower. The number of knocked down and anthropods were assessed at 24 and 48 hours post treatment. Five replicates were be performed for each treatment, for each species.
# [2] = test system: caterpillars, a mixture of Mamestra brassicae and Lacanobia oleracea; test: Potter tower spray on caterpillars, knockdown and mortality; conditions: Caterpillars, read-out: Average of % corrected affected; for pest or weed control at 0.00625 % strength: 0.00625 % w/v; for pest or weed control at 0.0125 % strength: 0.0125 % w/v; for pest or weed control at 0.025 % strength: 0.025 % w/v; for pest or weed control at 0.05 % strength: 0.05 % w/v; for pest or weed control at 0.1 % strength: 0.1 % w/v
# In short: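 Mixed Mamestra brassicae and Lacanobia oleracea larvae (ten per dish, on leaf disc over damp cotton wool) sprayed directly with a Potter tower at five concentrations in DMSO containing 1% v/v Tween 20, alongside carrier-only and untreated controls. Knockdown and mortality scored at 24 and 48 h post treatment; five replicates per treatment.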
# [3] = 24 h, 24 hours post application
# [4] = 48 h, 48 hours post application
SMILES,"percentage control (aphids, Myzus persicae; 25 g/ha, 24 h)","percentage control (aphids, Myzus persicae; 25 g/ha, 48 h)","percentage control (aphids, Myzus persicae; 50 g/ha, 24 h)","percentage control (aphids, Myzus persicae; 50 g/ha, 48 h)","percentage control (aphids, Myzus persicae; 100 g/ha, 24 h)","percentage control (aphids, Myzus persicae; 100 g/ha, 48 h)","percentage control (aphids, Myzus persicae; 200 g/ha, 24 h)","percentage control (aphids, Myzus persicae; 200 g/ha, 48 h)","pest or weed control at 0.1 % strength (aphids, Myzus persicae; [3])","pest or weed control at 0.1 % strength (aphids, Myzus persicae; [4])","percentage control ([1]; 25 g/ha, 24 h)","percentage control ([1]; 25 g/ha, 48 h)","percentage control ([1]; 50 g/ha, 24 h)","percentage control ([1]; 50 g/ha, 48 h)","percentage control ([1]; 100 g/ha, 24 h)","percentage control ([1]; 100 g/ha, 48 h)","percentage control ([1]; 200 g/ha, 24 h)","percentage control ([1]; 200 g/ha, 48 h)","pest or weed control at 0.1 % strength [2, 3]","pest or weed control at 0.00625 % strength [2, 4]",other results
"CCOC(=O)CN(Cc1ccc(Cl)nc1)C1=CC(=O)OC1 [Compound 3, Ethyl 2-[(6-chloro-3-pyridyl)methyl-(5-oxo-2H-furan-3-yl)amino]acetate]",E (A percentage control of from 1 to 19 is indicated by the letter E),D (A percentage control of from 20 to 39 is indicated by the letter D),0%,C (A percentage control of from 40 to 59 is indicated by the letter C),E (A percentage control of from 1 to 19 is indicated by the letter E),B (A percentage control of from 60 to 79 is indicated by the letter B),E (A percentage control of from 1 to 19 is indicated by the letter E),C (A percentage control of from 40 to 59 is indicated by the letter C),1 to 19%,20 to 39%,B (A percentage control of from 60 to 79 is indicated by the letter B),C (A percentage control of from 40 to 59 is indicated by the letter C),D (A percentage control of from 20 to 39 is indicated by the letter D),D (A percentage control of from 20 to 39 is indicated by the letter D),C (A percentage control of from 40 to 59 is indicated by the letter C),C (A percentage control of from 40 to 59 is indicated by the letter C),D (A percentage control of from 20 to 39 is indicated by the letter D),D (A percentage control of from 20 to 39 is indicated by the letter D),1 to 19%,1 to 19%,"percentage control (aphids, Myzus persicae; 400 g/ha, 24 h): E (A percentage control of from 1 to 19 is indicated by the letter E); percentage control (aphids, Myzus persicae; 400 g/ha, 48 h): B (A percentage control of from 60 to 79 is indicated by the letter B); pest or weed control at 0.00625 % strength (aphids, Myzus persicae; [3]): 1 to 19%; pest or weed control at 0.0125 % strength (aphids, Myzus persicae; [3]): 1 to 19%; pest or weed control at 0.025 % strength (aphids, Myzus persicae; [3]): 1 to 19%; pest or weed control at 0.05 % strength (aphids, Myzus persicae; [3]): 1 to 19%; pest or weed control at 0.00625 % strength (aphids, Myzus persicae; [4]): 1 to 19%; pest or weed control at 0.0125 % strength (aphids, Myzus persicae; [4]): 1 to 19%; pest or weed control at 0.025 % strength (aphids, Myzus persicae; [4]): 20 to 39%; pest or weed control at 0.05 % strength (aphids, Myzus persicae; [4]): 20 to 39%; percentage control ([1]; 400 g/ha, 24 h): D (A percentage control of from 20 to 39 is indicated by the letter D); percentage control ([1]; 400 g/ha, 48 h): D (A percentage control of from 20 to 39 is indicated by the letter D); pest or weed control at 0.00625 % strength [2, 3]: 1 to 19%; pest or weed control at 0.0125 % strength [2, 3]: 1 to 19%; pest or weed control at 0.025 % strength [2, 3]: 1 to 19%; pest or weed control at 0.05 % strength [2, 3]: 1 to 19%; pest or weed control at 0.0125 % strength [2, 4]: 1 to 19%; pest or weed control at 0.025 % strength [2, 4]: 1 to 19%; pest or weed control at 0.05 % strength [2, 4]: 1 to 19%; pest or weed control at 0.1 % strength [2, 4]: 20 to 39%"
"CC(=O)N=S(C)(=O)C(C)c1ccc(C(F)(F)F)nc1 (stereo not drawn) [Compound 12, N-[Methyl-oxo-[1-[6-(trifluoromethyl)-3-pyridyl]ethyl]-λ^6-sulfanylidene]acetamide]",E (A percentage control of from 1 to 19 is indicated by the letter E),D (A percentage control of from 20 to 39 is indicated by the letter D),E (A percentage control of from 1 to 19 is indicated by the letter E),C (A percentage control of from 40 to 59 is indicated by the letter C),E (A percentage control of from 1 to 19 is indicated by the letter E),D (A percentage control of from 20 to 39 is indicated by the letter D),E (A percentage control of from 1 to 19 is indicated by the letter E),D (A percentage control of from 20 to 39 is indicated by the letter D),20 to 39%,40 to 59%,D (A percentage control of from 20 to 39 is indicated by the letter D),D (A percentage control of from 20 to 39 is indicated by the letter D),C (A percentage control of from 40 to 59 is indicated by the letter C),C (A percentage control of from 40 to 59 is indicated by the letter C),B (A percentage control of from 60 to 79 is indicated by the letter B),B (A percentage control of from 60 to 79 is indicated by the letter B),B (A percentage control of from 60 to 79 is indicated by the letter B),A (A percentage control of from 80 to 100 is indicated by the letter A),1 to 19%,1 to 19%,"percentage control (aphids, Myzus persicae; 12.5 g/ha, 24 h): E (A percentage control of from 1 to 19 is indicated by the letter E); percentage control (aphids, Myzus persicae; 12.5 g/ha, 48 h): D (A percentage control of from 20 to 39 is indicated by the letter D); percentage control ([1]; 12.5 g/ha, 24 h): D (A percentage control of from 20 to 39 is indicated by the letter D); percentage control ([1]; 12.5 g/ha, 48 h): D (A percentage control of from 20 to 39 is indicated by the letter D); activity against spider mites compared with the reference compound ([1]; versus flupyradifurone or sulfoxaflor respectively, tables 1 and 3): more active than the reference compound; pest or weed control at 0.0125 % strength [2, 4]: 1 to 19%; pest or weed control at 0.025 % strength [2, 4]: 1 to 19%; pest or weed control at 0.05 % strength [2, 4]: 1 to 19%; pest or weed control at 0.1 % strength [2, 4]: 1 to 19%"
